Experimental data from patent US4698350A, “1-ethyl-6-fluoro-1,4-dihydro- 7-(2,6-dimethyl-4-pyridinyl)-4-oxo-3-quinolinecarboxylic acid and antibacterial use thereof” (Sterling Drug Inc., priority 1984, dated 1987).
≈ marks a conversion by molar mass, not a printed value. Where two headings read alike, the source gives them in different places.

Key:
P. aeruginosa MGH-2 = assay: In vitro antibacterial MIC/MBC test; type: cell-based; conditions: Pseudomonas aeruginosa, MGH2
Outline: (§1)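 In this microdilution assay, strains are exposed to two-fold compound dilutions in MHB (streptococci in BHI+1% NHS) at roughly 1×10^4 cells per well for 18-20 hours at 37° C. Visible growth defines the MIC. Subculture onto MHA or BHI agar+10% NHS defines the MBC.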

P. aeruginosa (9027) = assay: In vitro antibacterial MIC/MBC test; type: cell-based; conditions: Pseudomonas aeruginosa, ATCC9027; P. aeruginosa ATCC No. 9027
Outline: as §1

E. coli (8739) = assay: In vitro antibacterial MIC/MBC test; type: cell-based; conditions: Escherichia coli, ATCC8739; E. coli ATCC No. 8739
Outline: as §1

P. aeruginosa (7700) = assay: In vitro antibacterial MIC/MBC test; type: cell-based; conditions: Pseudomonas aeruginosa, ATCC7700; P. aeruginosa ATCC No. 7700
Outline: as §1

P. aeruginosa (27853) = assay: In vitro antibacterial MIC/MBC test; type: cell-based; conditions: Pseudomonas aeruginosa, ATCC27853; P. aeruginosa ATCC No. 27853
Outline: as §1

E. coli AH719 = assay: In vitro antibacterial MIC/MBC test; type: cell-based; conditions: Escherichia coli
Outline: as §1

E. coli Vogel = assay: In vitro antibacterial MIC/MBC test; type: cell-based; conditions: Escherichia coli
Outline: as §1

E. coli 198 = assay: In vitro antibacterial MIC/MBC test; type: cell-based; conditions: Escherichia coli
Outline: as §1

P. aeruginosa (15442) = assay: In vitro antibacterial MIC/MBC test; type: cell-based; conditions: Pseudomonas aeruginosa, ATCC15442; P. aeruginosa ATCC No. 15442
Outline: as §1

E. coli 2350 = assay: In vitro antibacterial MIC/MBC test; type: cell-based; conditions: Escherichia coli
Outline: as §1

E. coli = assay: In vitro MIC/MBC summary (Table II); type: cell-based; conditions: Escherichia coli, 5 E. coli strains
Method: (§2) Win 52,522 and Win 35,439 were solubilized in 0.1 ml of 0.5 N NaOH/mg of compound and diluted in sterile distilled water to 160 mcg/ml. Vancomycin and methicillin were solubilized in sterile distilled water to 1250 mcg/ml of base compound. The stock solutions were sterilized by filtration through membrane filters with a 0.45 μm pore size.
(§3) The bacterial cultures listed in Table I (hereinbelow) were grown overnight at 37° C. in MHB for all cultures except the Streptococcus strains. These were grown in BHI+10% NHS. The overnight broth cultures were adjusted to an optical density of 0.10 (650 nm, B L Spectronic 20) in sterile distilled water and subsequently diluted to 6.7×10^6 cells/ml in MHB or BHI+1% NHS.
(§4) Serial two-fold dilutions of the compound solutions were prepared in MHB (or in BHI+1% NHS for tests with Streptococci) and dispensed into 96-well microtiter trays in a volume of 0.1 ml/well using a Sandy Springs (Bellco Glass Co.) dispenser. The trays were then inoculated with 0.0015 ml of a suspension containing 6.7×10^6 cells/ml of the appropriate inoculum using a MIC-2000 inoculator (Dynatech Corp.) resulting in a final inoculum of approximately 1×10^4 cells/well or 1×10^5 cells/ml. The trays were incubated at 37° C. for 18-20 hours and the minimal inhibitory concentration (MIC), defined as the lowest concentration of compound to inhibit visible bacterial growth, was recorded.
(§5) After the MIC values were recorded, the contents in the microtiter trays were thoroughly mixed on a Bellco Mini-orbital Shaker (Bellco Glass Co.) for 3 min. at a setting of 8. A portion (0.0015 ml) from each well was then transferred via an MIC-2000 inoculator to plates containing MHA or BHI agar+10% NHS. The plates were incubated at 37° C. for 18-20 hrs. The minimal bactericidal concentration (MBC), defined as the lowest concentration of compound that prevented the formation of a recognizable colony on the agar surface, was recorded.

[1] = test system: Staphylococcus aureus Smith; assay: Mouse protection test, S. aureus Smith infection, multiple dose; type: in vivo, ICR mice; Staphylococcus aureus; conditions: for ED50: Staphylococcus aureus, 168 h, read-out: Protective Dose 50% (95% Confidence Limits)
Method: ICR mice, female, 18-20 grams each.
Solutions of Win 52,522 and Win 35,439 were prepared by dissolving the appropriate weight of drug in 0.3 to 0.4 ml of 1 N NaOH and then bringing the solutions to the desired volume with distilled water. Methicillin and vancomycin were dissolved directly in distilled water.
Two and one-half ml of pool were added to 247.5 ml of 5% gastric mucin to provide the test inoculum containing 2.1×10^4 cells/ml.
Mice were inoculated intraperitoneally with 0.5 ml of the bacterial test inoculum.
2. Multiple dose test--Mice were medicated subcutaneously (0.2 ml) or orally (0.5 ml) at the following times: six hours and one hour preinfection (infection at 2 pm) and twice a day (8 a.m. and 3:30 p.m.) for the next two successive days.
Deaths were recorded daily for seven days for all tests. Fifty percent protective dose values (PD50's) were calculated using probit analysis [SAS Users Guide: Statistics, 1982 Edition, SAS Institute, Inc., Cary, N.C.].

P. aeruginosa = assay: In vitro MIC/MBC summary (Table II); type: cell-based, Pseudomonas aeruginosa
Method: as §2, §3, §4, §5

[2] = Pseudomonas aeruginosa, 5 P. aeruginosa strains
[3] = Pseudomonas aeruginosa, 5 P. aeruginosa strains, read-out: MBC 50%
[4] = Pseudomonas aeruginosa, 5 P. aeruginosa strains, read-out: MBC 90%

For CCn1cc(C(=O)O)c(=O)c2cc(F)c(-c3cc(C)nc(C)c3)cc21 [Win 52,522, 1-ethyl-6-fluoro-1,4-dihydro-7-(2,6-dimethyl-4-pyridinyl)-4-oxo-3-quinolinecarboxylic acid], the MBC (P. aeruginosa MGH-2) was 16 µg/mL (≈ 47 µM), the MIC (P. aeruginosa MGH-2) was 16 µg/mL (≈ 47 µM) and the MBC (P. aeruginosa (9027)) was 16 µg/mL (≈ 47 µM). The MIC (P. aeruginosa (9027)) was 4 µg/mL (≈ 11.8 µM), the MBC (E. coli (8739)) was 0.25 µg/mL (≈ 0.735 µM) and the MIC (E. coli (8739)) was 0.25 µg/mL (≈ 0.735 µM). It also gave an MBC (P. aeruginosa (7700)) of 16 µg/mL (≈ 47 µM), an MIC (P. aeruginosa (7700)) of 16 µg/mL (≈ 47 µM) and an MBC (P. aeruginosa (27853)) of 16 µg/mL (≈ 47 µM). The MIC (P. aeruginosa (27853)) was 16 µg/mL (≈ 47 µM), the MBC (E. coli AH719) was 0.25 µg/mL (≈ 0.735 µM) and the MIC (E. coli AH719) was 0.25 µg/mL (≈ 0.735 µM). It also gave an MBC (E. coli Vogel) of 0.5 µg/mL (≈ 1.47 µM), an MIC (E. coli Vogel) of 0.25 µg/mL (≈ 0.735 µM) and an MBC (E. coli 198) of 0.5 µg/mL (≈ 1.47 µM). It also gave an MIC (E. coli 198) of 0.5 µg/mL (≈ 1.47 µM), an MBC (P. aeruginosa (15442)) of 16 µg/mL (≈ 47 µM) and an MIC (P. aeruginosa (15442)) of 16 µg/mL (≈ 47 µM). The MBC (E. coli 2350) was 0.25 µg/mL (≈ 0.735 µM), the MIC (E. coli 2350) was 0.25 µg/mL (≈ 0.735 µM) and the MIC (E. coli) was 0.25 to 0.5 µg/mL (≈ 0.735 to 1.47 µM). For the same compound, the MIC50 (E. coli) was 0.25 µg/mL (≈ 0.735 µM), the MIC90 (E. coli) was 0.25 µg/mL (≈ 0.735 µM) and the MBC (E. coli; read-out: MBC 50%) was 0.25 µg/mL (≈ 0.735 µM). The MBC (E. coli; read-out: MBC Range) was 0.25 to 0.5 µg/mL (≈ 0.735 to 1.47 µM), the Survivors/Total ([1]; 0.19 mg/kg po) was 0/10 and the Survivors/Total ([1]; 0.19 mg/kg sc) was 0/10. The Survivors/Total ([1]; 0.39 mg/kg po) was 0/10, the Survivors/Total ([1]; 0.39 mg/kg sc) was 0/10 and the Survivors/Total ([1]; 0.78 mg/kg po) was 0/10. The Survivors/Total ([1]; 0.78 mg/kg sc) was 0/10, the Survivors/Total ([1]; 1.56 mg/kg po) was 2/10 and the Survivors/Total ([1]; 1.56 mg/kg sc) was 4/10. The Survivors/Total ([1]; 3.13 mg/kg po) was 9/10, the Survivors/Total ([1]; 3.13 mg/kg sc) was 9/10 and the Survivors/Total ([1]; 6.25 mg/kg po) was 10/10. For the same compound, the Survivors/Total ([1]; 6.25 mg/kg sc) was 10/10, the Survivors/Total ([1]; 12.5 mg/kg po) was 10/10 and the Survivors/Total ([1]; 12.5 mg/kg sc) was 10/10. For the same compound, the ED50 ([1]; po) was 2.1 mg/kg, the ED50 ([1]; sc) was 1.8 mg/kg and the “times more efficient than Win 35,439” value ([1]; po) was 3.4 times. The “times more efficient than Win 35,439” value ([1]; sc) was 3.9 times, the MIC (P. aeruginosa; [2]) was 4 to 16 µg/mL (≈ 11.8 to 47 µM) and the MIC50 (P. aeruginosa; [2]) was 16 µg/mL (≈ 47 µM). For the same compound, the MIC90 (P. aeruginosa; [2]) was 16 µg/mL (≈ 47 µM), the MBC (P. aeruginosa; [3]) was 16 µg/mL (≈ 47 µM) and the MBC (P. aeruginosa; [4]) was 16 µg/mL (≈ 47 µM). The MBC (P. aeruginosa; Pseudomonas aeruginosa, 5 P. aeruginosa strains, read-out: MBC Range) was 16 µg/mL (≈ 47 µM) and the “potency relative to Win 35,439” value (P. aeruginosa; in vitro, P. aeruginosa) was “similarly potent”.
In the case of CCn1cc(C(=O)O)c(=O)c2ccc(-c3cc(C)nc(C)c3)cc21 [Win 35,439, 1-ethyl-1,4-dihydro-7-(2,6-dimethyl-4-pyridinyl)-4-oxo-3-quinolinecarboxylic acid], the MBC (P. aeruginosa MGH-2) is reported as 16 µg/mL (≈ 49.6 µM), the MIC (P. aeruginosa MGH-2) is reported as 8 µg/mL (≈ 24.8 µM) and the MBC (P. aeruginosa (9027)) is reported as greater than 16 µg/mL. For the same compound, the MIC (P. aeruginosa (9027)) was 8 µg/mL (≈ 24.8 µM), the MBC (E. coli (8739)) was 0.5 µg/mL (≈ 1.55 µM) and the MIC (E. coli (8739)) was 0.5 µg/mL (≈ 1.55 µM). It also gave an MBC (P. aeruginosa (7700)) greater than 16 µg/mL, an MIC (P. aeruginosa (7700)) of 16 µg/mL (≈ 49.6 µM) and an MBC (P. aeruginosa (27853)) greater than 16 µg/mL. The MIC (P. aeruginosa (27853)) was 16 µg/mL (≈ 49.6 µM), the MBC (E. coli AH719) was 0.5 µg/mL (≈ 1.55 µM) and the MIC (E. coli AH719) was 0.5 µg/mL (≈ 1.55 µM). For the same compound, the MBC (E. coli Vogel) was 2 µg/mL (≈ 6.2 µM), the MIC (E. coli Vogel) was 2 µg/mL (≈ 6.2 µM) and the MBC (E. coli 198) was 2 µg/mL (≈ 6.2 µM). The MIC (E. coli 198) was 2 µg/mL (≈ 6.2 µM), the MBC (P. aeruginosa (15442)) was greater than 16 µg/mL and the MIC (P. aeruginosa (15442)) was greater than 16 µg/mL. For the same compound, the MBC (E. coli 2350) was 0.5 µg/mL (≈ 1.55 µM), the MIC (E. coli 2350) was 0.5 µg/mL (≈ 1.55 µM) and the MIC (E. coli) was 0.5 to 2 µg/mL (≈ 1.55 to 6.2 µM). For the same compound, the MIC50 (E. coli) was 0.5 µg/mL (≈ 1.55 µM), the MIC90 (E. coli) was 2 µg/mL (≈ 6.2 µM) and the MBC (E. coli; read-out: MBC 50%) was 0.5 µg/mL (≈ 1.55 µM). The MBC (E. coli; read-out: MBC Range) was 0.5 to 2 µg/mL (≈ 1.55 to 6.2 µM), the Survivors/Total ([1]; 3.13 mg/kg po) was 0/10 and the Survivors/Total ([1]; 3.13 mg/kg sc) was 1/10. For the same compound, the Survivors/Total ([1]; 6.25 mg/kg po) was 4/10, the Survivors/Total ([1]; 6.25 mg/kg sc) was 3/10 and the Survivors/Total ([1]; 12.5 mg/kg po) was 9/10. The Survivors/Total ([1]; 12.5 mg/kg sc) was 10/10, the Survivors/Total ([1]; 25 mg/kg po) was 10/10 and the Survivors/Total ([1]; 25 mg/kg sc) was 10/10. It also gave an ED50 ([1]; po) of 7.2 mg/kg, an ED50 ([1]; sc) of 7.1 mg/kg and an MIC50 (P. aeruginosa; [2]) of 16 µg/mL (≈ 49.6 µM). It also gave an MIC90 (P. aeruginosa; [2]) of 16 µg/mL (≈ 49.6 µM), an MBC (P. aeruginosa; [3]) greater than 16 µg/mL and an MBC (P. aeruginosa; [4]) greater than 16 µg/mL.
